Data from patent publication US7238688B2, “Piperidine compounds” (Schering Corporation, priority 2001, dated 2007).
Values joined by “and” are separate entries in the source; they are usually repeats but may differ in a detail not shown here. Identical values can stand only once.

Each compound was assayed against T1, H3 receptors (Cavia porcellus, UniProt Q9JI35) (assay: H3-Receptor Binding Assay). Details: guinea pig brain membranes; 3 nM [3H]R-α-methyl histamine or 3 nM [3H]N-methyl histamine; 30° C. for 30 min.
T1 construct: The source of the H3 receptors in this experiment was guinea pig brain; from tissue; host or cells: guinea pig brain membranes
Protocol: General Procedure for H3-Receptor Binding Assay
The source of the H3 receptors in this experiment was guinea pig brain. The animals weighed 400–600 g. The brain tissue was homogenized with a solution of 50 mM Tris, pH 7.5. The final concentration of tissue in the homogenization buffer was 10% w/v. The homogenates were centrifuged at 1,000×g for 10 min. in order to remove clumps of tissue and debris. The resulting supernatants were then centrifuged at 50,000×g for 20 min. in order to sediment the membranes, which were next washed three times in homogenization buffer (50,000×g for 20 min. each). The membranes were frozen and stored at −70° C. until needed.
All compounds to be tested were dissolved in DMSO and then diluted into the binding buffer (50 mM Tris, pH 7.5) such that the final concentration was 2 μg/ml with 0.1% DMSO. Membranes were then added (400 μg of protein) to the reaction tubes. The reaction was started by the addition of 3 nM[^3H]R-α-methyl histamine (8.8 Ci/mmol) or 3 nM [^3H]N[…] -methyl histamine (80 Ci/mmol) and continued under incubation at 30° C. for 30 min. Bound ligand was separated from unbound ligand by filtration, and the amount of radioactive ligand bound to the membranes was quantitated by liquid scintillation spectrometry.

T1 sequence (Q9JI35 whole entry): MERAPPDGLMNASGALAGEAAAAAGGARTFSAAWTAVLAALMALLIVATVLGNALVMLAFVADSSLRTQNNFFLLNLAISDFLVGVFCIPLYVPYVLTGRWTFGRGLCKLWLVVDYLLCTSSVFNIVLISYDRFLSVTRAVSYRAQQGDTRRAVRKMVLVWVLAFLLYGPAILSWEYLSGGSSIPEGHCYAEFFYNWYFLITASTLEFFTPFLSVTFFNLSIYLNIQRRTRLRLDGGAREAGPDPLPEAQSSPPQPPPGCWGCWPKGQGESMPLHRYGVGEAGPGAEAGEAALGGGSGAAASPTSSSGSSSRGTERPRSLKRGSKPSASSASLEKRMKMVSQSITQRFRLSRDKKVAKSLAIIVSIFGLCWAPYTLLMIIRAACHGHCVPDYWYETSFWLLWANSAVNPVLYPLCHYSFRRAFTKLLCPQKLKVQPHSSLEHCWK

SMILES | Ki
Nc1cc(CN2CCC(C(=O)N3CCN(Cc4c(F)ccc(F)c4F)CC3)CC2)ccn1 [Compound 306] | 0.2 to 35 nM and 2 to 22 nM
Nc1cc(CN2CCC(C(=O)N3CCN(Cc4cccc(Cl)c4S(=O)(=O)N4CCOCC4)CC3)CC2)ccn1 [Compound 317] | 0.2 to 35 nM
Cc1noc(C)c1CN1CCN(C(=O)C2CCN(Cc3ccnc(N)c3)CC2)CC1 [Compound 331] | 0.2 to 35 nM
CN(C)S(=O)(=O)c1cc(F)ccc1CN1CCN(C(=O)C2CCN(Cc3ccnc(N)c3)CC2)CC1 [Compound 332] | 0.2 to 35 nM and 2 to 22 nM
Nc1cc(CN2CCC(C(=O)N3CCN(S(=O)(=O)c4ccc(Cl)cc4)CC3)CC2)ccn1 [Compound 366] | 0.2 to 35 nM and 2 to 22 nM
CN(C)S(=O)(=O)N1CCN(C(=O)C2CCN(Cc3ccnc(N)c3)CC2)CC1 [Compound 367] | 0.2 to 35 nM
Nc1cc(CN2CCC(C(=O)N3CCN(S(=O)(=O)c4cc(Cl)cc(Cl)c4)CC3)CC2)ccn1 [Compound 376] | 0.2 to 35 nM

The remaining lines, values ahead:

Ki | SMILES
0.2 to 35 nM | O=C(C1CCN(Cc2ccncc2)CC1)N1CCN(Cc2ccccc2Br)CC1 [Compound 93]
0.2 to 35 nM | O=C(NCCc1ccccc1)c1cccc(CN2CCN(C(=O)C3CCN(Cc4ccncc4)CC3)CC2)c1 [Compound 276]
0.2 to 35 nM | Nc1cc(CN2CCC(C(=O)N3CCN(Cc4cc(F)ccc4Br)CC3)CC2)ccn1 [Compound 328]
0.2 to 35 nM and 2 to 22 nM | Nc1cc(CN2CCC(C(=O)N3CCN(Cc4cc(-c5ccc(Cl)cc5)on4)CC3)CC2)ccn1 [Compound 333]
0.2 to 35 nM and 2 to 22 nM | Nc1cc(CN2CCC(C(=O)N3CCN(Cc4c(F)cccc4Cl)CC3)CC2)ccn1 [Compound 336]
0.2 to 35 nM | CN(c1ccc(Cl)cc1)S(=O)(=O)c1cc(F)ccc1CN1CCN(C(=O)C2CCN(Cc3ccnc(N)c3)CC2)CC1 [Compound 343]
0.2 to 35 nM and 2 to 22 nM | Nc1cc(CN2CCC(C(=O)N3CCN(S(=O)(=O)c4ccccc4Cl)CC3)CC2)ccn1 [Compound 374]
